Data reported in patent publication US20060035873A1, “Methods for inducing apolipoprotein e secretion” (priority 2000, published 2006).
Where two headings read alike, the source gives them in different places.

Legend:
[1] = test system: ApoE secretion by THP-1 cells; assay: Secretion of ApoE by THP-1 cells, ApoE determined by ELISA; format: cell-based, human; conditions: for Change in Apo E production: 72 hours incubation
Protocol: The activities of the compounds can be determined an in vitro assay which comprises testing the effects of FXR and LXRα activators on the secretion of ApoE in the THP-1 cell line.
The THP1 cell line was derived from the peripheral blood of a child with acute monocytic leukemia. […] Fresh medium was added to maintain cell density between 2 and 9×10^5 cells/ml. Once a week, new cultures were initiated by inoculating 10 ml of medium with 2×10^6 cells in a 75 cm^2 plate. The plates were kept at 37° C. in a 5% CO2 atmosphere. For screening, cells were seeded in 24-well plates at the density of 2×10^5 cells per well. Phorbol-12-myristat-13-acetate (PMA) was added at 0 and 2.5 nM to initiate THP1 differentiation into adherent macrophage-like cells. Vehicles, reference compounds and test compounds were added simultaneously at concentrations varying from 1 to 50 μM and incubated for 72 hours. The culture medium was then recovered, centrifuged at 300 g for 5 min to remove any unattached cell and stored at −20° C. before analysis.
96 well-microtiter plates were coated by incubating with a 5% gelatine solution from porcine skin, in 50 mM carbonate-bicarbonate buffer, pH9.6 at the concentration of 200 μl/well, for 2 hours at 37° C. The coating solution was carefully removed and the test compound was added (100 μl/well) at the appropriate dilution. Dilutions of a human ApoE standard (ICN BiomedicalsInc, USA) were simultaneously assayed. Test compounds and antibodies were diluted in the following buffer solution: PBS, 1% BSA, 0.1% Tween 20, pH 7.4. Test compounds were incubated for 1 hour at 37° C., and the wells were washed 3 times with 200 μl of buffer solution. One hundred microliters per well of the primary antibody (goat anti-human ApoE IgG) diluted 10000 fold was incubated for 1 hour at 37° C. under continuous shaking. After the third wash, 100 μl/well of the secondary antibody (anti-goat-IgG peroxidase conjugate) diluted 5000 fold was incubated for 1 hour at 37° C. with continuous shaking. Wells were washed 5 times and 100 μl/well of substrate (ortho-phenylenediamine dihydrochloride) was incubated for the appropriate time at room temperature in the dark with continuous shaking. The reaction was stopped by adding 50 μl/well of 3M sulfuric acid and incubating for 1 min at room temperature.

LXRα = biological target: T1, LXRα (Homo sapiens, UniProt Q13133); conditions: see Janowsky et al. PNAS 1999; cited from earlier work
T1 sequence (Q13133 1-447): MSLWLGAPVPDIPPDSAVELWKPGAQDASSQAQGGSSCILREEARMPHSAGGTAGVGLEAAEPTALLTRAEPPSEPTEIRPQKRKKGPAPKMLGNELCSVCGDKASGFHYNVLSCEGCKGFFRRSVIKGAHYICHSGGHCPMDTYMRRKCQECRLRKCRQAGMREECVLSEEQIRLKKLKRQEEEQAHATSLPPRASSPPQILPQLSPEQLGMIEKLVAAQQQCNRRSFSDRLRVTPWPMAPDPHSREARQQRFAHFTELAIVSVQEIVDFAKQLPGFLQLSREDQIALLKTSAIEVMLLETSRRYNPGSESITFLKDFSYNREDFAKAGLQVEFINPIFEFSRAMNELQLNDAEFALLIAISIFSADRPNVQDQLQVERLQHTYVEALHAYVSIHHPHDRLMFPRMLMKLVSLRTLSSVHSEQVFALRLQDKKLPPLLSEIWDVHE

FXR = conditions: cited from earlier work

## CC(C)CC[C@@H](O)[C@@H](C)[C@H]1CC[C@H]2[C@@H]3CC=C4C[C@@H](O)CC[C@]4(C)[C@H]3CC[C@]12C [22(R)-hydroxycholesterol, 5-cholestene-3β,22[R]-diol]
[1]; submicromolar concentrations
  ApoE secretion at submicromolar concentrations: significant increases in ApoE secretion
LXRα
  Interaction with Nuclear receptor: LXRα activator ^3)

## CC(C)CC[C@H](O)[C@@H](C)[C@H]1CC[C@H]2[C@@H]3CC=C4C[C@@H](O)CC[C@]4(C)[C@H]3CC[C@]12C [22(S)-hydroxycholesterol, 5-cholestene-3β,22[S]-diol]
LXRα
  Interaction with Nuclear receptor: Less potent activator

## C[C@H](CCC(=O)O)[C@H]1CC[C@H]2[C@@H]3[C@H](O)C[C@@H]4C[C@H](O)CC[C@]4(C)[C@H]3CC[C@]12C [Chenodeoxycholic acid, 3α,7α-dihydroxy-5β-cholanic acid]
[1]; compound 50 μM
  Change in Apo E production: +138%
[1]; compound 50 μM, listed as chenodeoxycholic acid
  Change in Apo E production: 138%

## C[C@H](CCC(=O)O)[C@H]1CC[C@H]2[C@@H]3[C@H](O)C[C@@H]4C[C@H](O)CC[C@]4(C)[C@H]3C[C@H](O)[C@]12C [Cholic acid, 3α,7α,12α-trihydroxy-5β-cholan-24-oic acid]
[1]; compound 50 μM
  Change in Apo E production: +6%
[1]; compound 50 μM, listed as cholic acid
  Change in Apo E production: did not change ApoE secretion
FXR; see Makishima et al., Parks et al., Wang et al. 1999
  Interaction with Nuclear receptor: Does not activate

## CC(C)=CCC/C(C)=C/CC/C(C)=C/CC/C(C)=C/CO [Geranylgeraniol, All trans-3,7,11,15-tetramethyl-2,6,10,14-hexadecatetraen-1-ol]
[1]; compound 20 μM
  Change in Apo E production: +36%
[1]; compound 20 μM, listed as geranylgeraniol
  Change in Apo E production: 36%
FXR; see Forman et al. Cell 1995
  Interaction with Nuclear receptor: Does not activate
